What is called IC50 is the concentration that gives 50% inhibition. For orientation: inhibition means the drop in the measured response relative to a control, in per cent. What is called Kd is the constant that tells how readily two partners part at equilibrium.

SMILES strings stand for the structures. “And” between values parts separate entries of the source, which are not always exact repeats. Equal values may be shown once. Read-outs that look alike come from different tables or passages of the source.

Data on six molecules can be found in PMC10192158 (Cancer Chemotherapy and Pharmacology, 2023).

In assay [1] the test system is VEGFR2. The settings on record: cited from earlier work.
In assay [2] the test system is panel of 270 kinases. The assay is described as follows: Selectivity across panel of 270 kinases (residual activity radar chart, kinome tree).
The next assay deals with T1, KIT (Homo sapiens, UniProt P10721).
T1 construct: purchased Carna Biosciences, Inc. (Kobe, Japan)
The assay is described as follows: Kinase panel enzyme activity assay (MSA or IMAP), percent inhibition at fixed concentration. The assay is classed as biochemical. On the procedure: (§1) Kinase assays were performed to evaluate inhibitor activity on VEGFR2 and other kinases using either mobility shift assays (MSA) or immobilized metal ion affinity particle (IMAP) assays at Carna Biosciences, Inc (Kobe, Japan). The panel of kinases assayed comprises all wild-type kinases available for profiling at Carna Biosciences, Inc. For VEGFR2, the same cytoplasmic domain was used as in the SPR binding assay.
(§2) Off-chip MSA was performed by preparing a 4 × substrate/ATP/metal solution using kit buffer (20 mM HEPES, 0.01% Triton X-100, 5 mM DTT, pH 7.5), and a 2 × kinase solution was prepared in assay buffer (20 mM HEPES, 0.01% TritonX-100, 1 mM DTT, pH 7.5). […] A 4 × compound solution and the 4 × substrate/ATP/metal solution, and 2 × kinase solution were mixed and incubated in a 384-well microplate at room temperature for 1 or 5 h, dependent on the kinase. Termination Buffer (QuickScout Screening Assist MSA; Carna Biosciences) was added to the well, and the reaction mixture was applied to the LabChip™ system (Perkin Elmer) to separate and quantitate the product and substrate peptide peaks. The kinase reaction was measured using the product ratio calculated from the peak heights of the product (P) and substrate (S) peptides: [P/(P + S)].
(§3) For the IMAP assays, a 4 × substrate/ATP/metal solution and 2 × kinase solution were prepared using assay buffer (20 mM HEPES, 0.01% Tween 20, 2 mM DTT, pH 7.4). ATP concentrations in the solution were within twofold of the affinity for ATP (KM,ATP) for each individual kinase. Then, the 4 × compound solution, 4 × substrate/ATP/metal solution, and 2 × kinase solution were mixed and incubated in a single well of a polystyrene 384-well black microplate. After incubating for 1 h at room temperature, IMAP-binding reagent (IMAP Screening Express kit; Molecular Devices) was added to the well and incubated for 30 min. The kinase reaction in each well was measured via fluorescence polarization at excitation of 485 nm and emission of 530 nm.
(§4) IC50 values were calculated by fitting a 4-parameter logistic curve to the percentage inhibition values at the tested concentrations.
(§5) To compare the selectivity of rivoceranib and the 10 reference inhibitors, we performed either IMAP assays or off-chip MSA to assess the residual kinase activity of a panel of 270 kinases in the presence of 160 nM or 1600 nM rivoceranib or 1000 nM of reference inhibitor. The 270 kinases represent a broad representation of the more than 500 kinases encoded by the human genome.

For a further assay, the target named is T2, PDGFRβ (Homo sapiens, UniProt P09619).
T2 construct: purchased Carna Biosciences, Inc. (Kobe, Japan)
Described as above. The assay is classed as biochemical. On the procedure:
as §1, §2, §3, §4, §5

For the next assay, the target named is T3, RET (Homo sapiens, UniProt P07949).
T3 construct: purchased Carna Biosciences, Inc. (Kobe, Japan)
Described as above. Format: biochemical. On the procedure: as §1, §2, §3, §4, §5

The next assay addresses T4, VEGFR1/FLT1 (Homo sapiens, UniProt P17948).
T4 construct: purchased Carna Biosciences, Inc. (Kobe, Japan)
Described as above. Format: biochemical. On the procedure: as §1, §2, §3, §4, §5

The target of another assay is T5, VEGFR2/KDR (Homo sapiens, UniProt P35968).
T5 construct: cytoplasmic domain of VEGFR2, encompassing amino acid residue 790 to 1356 (C-terminus); purchased Carna Biosciences, Inc. (Kobe, Japan); host or cells: insect cells
The description is as above. Format: biochemical. On the procedure: as §1, §2, §3, §4, §5

The next assay concerns the target T6, VEGFR3/FLT4 (Homo sapiens, UniProt P35916).
T6 construct: purchased Carna Biosciences, Inc. (Kobe, Japan)
Described as above. Format: biochemical. On the procedure:
as §1, §2, §3, §4, §5

Assay [3] deals with T7, VEGFR2 (Homo sapiens, UniProt P35968). Put plainly: VEGFR2 kinase activity, off-chip mobility shift assay (MSA), dose-response.
Assay [4] has as its target T7, VEGFR2. Put plainly: Surface plasmon resonance (Biacore T200) binding of rivoceranib to biotinylated VEGFR2 cytoplasmic domain. A general note: In SPR one partner is held on a chip, and binding of the other changes the refractive index at the surface.
In assay [5] the test system is panel of 270 kinases. On the set-up: method as in PMID 24651269, PMID 30381447. To be noted: 1000 nM reference inhibitor, compared among all inhibitors profiled; cited from earlier work.
Setting [6] is: 1000 nM reference inhibitor, panel of 270 kinases.
[7] abbreviates: SPR, individual replicates 1a, 1b, 2a, 2b.

T6 sequence (P35916 25-1363): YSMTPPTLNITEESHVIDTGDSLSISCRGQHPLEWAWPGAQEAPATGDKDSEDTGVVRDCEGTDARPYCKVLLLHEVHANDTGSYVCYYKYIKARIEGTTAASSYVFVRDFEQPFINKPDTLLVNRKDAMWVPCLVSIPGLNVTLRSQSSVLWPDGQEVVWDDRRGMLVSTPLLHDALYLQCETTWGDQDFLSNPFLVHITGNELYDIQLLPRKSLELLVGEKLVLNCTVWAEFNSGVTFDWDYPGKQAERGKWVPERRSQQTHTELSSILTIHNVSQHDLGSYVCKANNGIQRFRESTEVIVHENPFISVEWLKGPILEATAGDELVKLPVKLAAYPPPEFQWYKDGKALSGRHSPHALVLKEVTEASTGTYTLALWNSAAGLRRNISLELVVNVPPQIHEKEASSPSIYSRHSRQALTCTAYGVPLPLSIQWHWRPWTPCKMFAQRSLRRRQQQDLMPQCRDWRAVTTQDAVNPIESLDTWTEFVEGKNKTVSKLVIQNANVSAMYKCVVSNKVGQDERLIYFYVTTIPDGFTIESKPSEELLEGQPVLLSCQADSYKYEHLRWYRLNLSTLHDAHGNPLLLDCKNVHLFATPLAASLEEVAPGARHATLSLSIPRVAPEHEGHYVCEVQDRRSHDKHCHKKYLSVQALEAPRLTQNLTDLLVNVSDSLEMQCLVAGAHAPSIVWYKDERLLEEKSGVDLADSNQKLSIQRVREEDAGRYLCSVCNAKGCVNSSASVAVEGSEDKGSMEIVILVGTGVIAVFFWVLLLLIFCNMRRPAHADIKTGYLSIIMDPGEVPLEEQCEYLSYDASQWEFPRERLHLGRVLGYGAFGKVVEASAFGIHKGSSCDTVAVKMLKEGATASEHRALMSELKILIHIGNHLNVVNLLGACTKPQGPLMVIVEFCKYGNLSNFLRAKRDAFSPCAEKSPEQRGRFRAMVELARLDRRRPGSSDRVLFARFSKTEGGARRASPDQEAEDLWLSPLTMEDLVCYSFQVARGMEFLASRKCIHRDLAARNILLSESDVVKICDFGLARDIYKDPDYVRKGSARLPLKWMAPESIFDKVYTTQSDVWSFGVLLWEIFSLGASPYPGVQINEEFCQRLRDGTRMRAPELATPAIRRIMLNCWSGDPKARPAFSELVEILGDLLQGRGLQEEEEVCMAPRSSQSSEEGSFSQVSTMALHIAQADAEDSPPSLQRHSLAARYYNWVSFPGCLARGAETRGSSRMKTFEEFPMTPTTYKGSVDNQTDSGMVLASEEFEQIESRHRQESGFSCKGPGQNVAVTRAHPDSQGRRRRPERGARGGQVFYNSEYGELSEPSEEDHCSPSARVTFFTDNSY
T2 sequence (P09619 33-1106): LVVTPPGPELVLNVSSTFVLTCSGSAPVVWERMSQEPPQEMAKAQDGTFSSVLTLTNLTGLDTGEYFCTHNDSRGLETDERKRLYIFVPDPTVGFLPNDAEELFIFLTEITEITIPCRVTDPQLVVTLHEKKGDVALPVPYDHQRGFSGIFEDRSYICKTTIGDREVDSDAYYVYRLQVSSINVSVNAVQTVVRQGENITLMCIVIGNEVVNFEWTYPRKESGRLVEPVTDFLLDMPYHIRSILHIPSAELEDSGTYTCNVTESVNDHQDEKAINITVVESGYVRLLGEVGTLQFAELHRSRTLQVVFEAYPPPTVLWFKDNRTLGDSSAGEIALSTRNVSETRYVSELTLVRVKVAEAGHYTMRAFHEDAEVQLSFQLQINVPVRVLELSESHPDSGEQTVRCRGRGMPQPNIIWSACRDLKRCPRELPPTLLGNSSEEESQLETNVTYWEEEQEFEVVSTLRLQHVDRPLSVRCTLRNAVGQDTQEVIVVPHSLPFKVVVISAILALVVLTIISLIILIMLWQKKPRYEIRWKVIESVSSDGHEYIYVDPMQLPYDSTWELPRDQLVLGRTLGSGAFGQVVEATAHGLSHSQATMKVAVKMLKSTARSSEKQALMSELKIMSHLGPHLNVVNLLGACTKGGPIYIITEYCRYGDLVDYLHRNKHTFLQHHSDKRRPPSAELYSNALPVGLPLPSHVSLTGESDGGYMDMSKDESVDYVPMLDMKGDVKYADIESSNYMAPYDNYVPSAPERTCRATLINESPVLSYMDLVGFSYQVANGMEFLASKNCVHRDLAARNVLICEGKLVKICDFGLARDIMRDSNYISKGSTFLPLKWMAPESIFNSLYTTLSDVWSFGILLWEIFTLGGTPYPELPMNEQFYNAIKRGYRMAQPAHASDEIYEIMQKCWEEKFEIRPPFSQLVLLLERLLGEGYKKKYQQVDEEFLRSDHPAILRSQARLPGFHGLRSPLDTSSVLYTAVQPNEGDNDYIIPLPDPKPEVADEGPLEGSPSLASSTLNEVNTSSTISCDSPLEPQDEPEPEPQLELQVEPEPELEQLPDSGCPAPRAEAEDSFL
T3 sequence (P07949 29-1114): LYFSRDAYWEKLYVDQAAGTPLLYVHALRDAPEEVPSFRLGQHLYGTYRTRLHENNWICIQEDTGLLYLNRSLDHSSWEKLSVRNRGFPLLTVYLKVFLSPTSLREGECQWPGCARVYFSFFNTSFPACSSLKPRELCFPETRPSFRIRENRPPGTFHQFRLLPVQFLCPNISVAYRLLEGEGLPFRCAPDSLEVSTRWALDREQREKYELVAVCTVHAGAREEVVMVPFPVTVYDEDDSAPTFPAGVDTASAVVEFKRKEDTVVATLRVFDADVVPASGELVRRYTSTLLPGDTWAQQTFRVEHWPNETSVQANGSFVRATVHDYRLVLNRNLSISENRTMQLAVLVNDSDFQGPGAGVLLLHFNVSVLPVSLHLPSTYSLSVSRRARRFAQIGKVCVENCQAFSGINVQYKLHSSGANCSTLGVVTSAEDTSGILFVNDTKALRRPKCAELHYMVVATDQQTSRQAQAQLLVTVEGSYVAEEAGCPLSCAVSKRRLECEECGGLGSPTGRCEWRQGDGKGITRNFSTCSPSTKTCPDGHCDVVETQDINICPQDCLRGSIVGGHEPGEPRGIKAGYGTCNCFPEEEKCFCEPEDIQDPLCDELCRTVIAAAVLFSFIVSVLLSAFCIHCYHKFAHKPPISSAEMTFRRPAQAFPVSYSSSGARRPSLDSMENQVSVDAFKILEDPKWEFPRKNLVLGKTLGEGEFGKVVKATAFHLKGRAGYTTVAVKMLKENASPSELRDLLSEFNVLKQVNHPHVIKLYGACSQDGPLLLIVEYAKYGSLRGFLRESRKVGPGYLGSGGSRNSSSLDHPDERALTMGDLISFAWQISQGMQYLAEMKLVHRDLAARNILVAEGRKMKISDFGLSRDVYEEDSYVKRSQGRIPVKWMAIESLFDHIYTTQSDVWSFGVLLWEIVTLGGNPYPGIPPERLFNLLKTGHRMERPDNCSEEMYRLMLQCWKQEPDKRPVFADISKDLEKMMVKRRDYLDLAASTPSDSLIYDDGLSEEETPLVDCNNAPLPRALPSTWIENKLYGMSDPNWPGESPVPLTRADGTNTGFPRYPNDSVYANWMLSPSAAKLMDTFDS
T5 sequence (P35968 790-1356): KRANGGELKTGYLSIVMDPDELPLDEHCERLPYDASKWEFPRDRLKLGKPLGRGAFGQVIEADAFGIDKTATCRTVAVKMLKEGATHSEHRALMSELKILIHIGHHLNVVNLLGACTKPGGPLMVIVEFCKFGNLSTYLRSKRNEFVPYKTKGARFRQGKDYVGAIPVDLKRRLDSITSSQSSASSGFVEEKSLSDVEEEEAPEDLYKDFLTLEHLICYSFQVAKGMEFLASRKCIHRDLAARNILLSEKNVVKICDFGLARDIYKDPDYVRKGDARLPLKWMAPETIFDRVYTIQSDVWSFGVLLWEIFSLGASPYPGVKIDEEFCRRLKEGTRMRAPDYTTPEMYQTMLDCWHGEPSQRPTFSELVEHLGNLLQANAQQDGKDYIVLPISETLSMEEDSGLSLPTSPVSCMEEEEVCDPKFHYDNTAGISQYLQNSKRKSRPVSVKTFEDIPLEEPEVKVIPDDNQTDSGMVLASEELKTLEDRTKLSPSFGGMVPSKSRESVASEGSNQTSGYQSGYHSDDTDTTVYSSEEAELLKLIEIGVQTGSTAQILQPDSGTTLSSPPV
T7 sequence (P35968 790-1356): as above
T1 sequence (P10721 26-976): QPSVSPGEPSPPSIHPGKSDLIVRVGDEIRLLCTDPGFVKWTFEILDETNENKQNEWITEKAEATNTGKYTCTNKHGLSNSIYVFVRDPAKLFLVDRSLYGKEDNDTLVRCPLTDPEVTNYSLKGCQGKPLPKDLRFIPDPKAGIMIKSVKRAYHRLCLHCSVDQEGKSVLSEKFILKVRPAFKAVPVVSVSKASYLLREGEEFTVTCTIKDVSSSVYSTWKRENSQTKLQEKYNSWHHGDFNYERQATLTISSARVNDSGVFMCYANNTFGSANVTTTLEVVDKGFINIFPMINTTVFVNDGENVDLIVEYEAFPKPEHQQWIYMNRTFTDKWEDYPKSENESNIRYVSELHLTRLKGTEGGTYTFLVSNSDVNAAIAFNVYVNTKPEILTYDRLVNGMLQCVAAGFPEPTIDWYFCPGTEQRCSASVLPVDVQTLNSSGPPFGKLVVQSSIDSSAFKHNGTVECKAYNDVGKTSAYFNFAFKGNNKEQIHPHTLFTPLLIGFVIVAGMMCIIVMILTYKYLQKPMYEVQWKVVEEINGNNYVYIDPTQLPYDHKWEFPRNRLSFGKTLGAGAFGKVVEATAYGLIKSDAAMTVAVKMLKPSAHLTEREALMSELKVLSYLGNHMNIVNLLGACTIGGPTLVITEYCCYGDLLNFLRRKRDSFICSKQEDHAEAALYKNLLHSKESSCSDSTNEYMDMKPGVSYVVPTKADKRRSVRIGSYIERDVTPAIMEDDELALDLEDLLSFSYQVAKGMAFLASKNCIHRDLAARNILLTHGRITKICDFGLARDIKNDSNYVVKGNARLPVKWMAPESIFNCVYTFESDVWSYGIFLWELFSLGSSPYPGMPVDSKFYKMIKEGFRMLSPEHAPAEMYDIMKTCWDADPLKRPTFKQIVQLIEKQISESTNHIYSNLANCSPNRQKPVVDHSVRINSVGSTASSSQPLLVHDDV

As for `COc1cc2nccc(Oc3ccc(NC(=O)C4(C(=O)Nc5ccc(F)cc5)CC4)cc3)c2cc1OC` [cabozantinib], the IC50 in the assay on VEGFR2 [1] (read-out: Reported IC50 values (VEGFR2), published literature, ref Yakes FM et al., Mol Cancer Ther. 2011) is […].
As to `COc1cc2nccc(Oc3ccc(NC(=O)NC4CC4)c(Cl)c3)c2cc1C(N)=O` [lenvatinib], in the assay on VEGFR2 [1] (read-out: Reported IC50 values (VEGFR2), published literature, ref Brody T., 2018), the IC50 is 4 nM. The “Number of kinases inhibited by 50% or more” value with panel of 270 kinases [2] (setting [6]) is given as 31.
Consider `CNC(=O)c1cc(Oc2ccc(NC(=O)Nc3ccc(Cl)c(C(F)(F)F)c3)c(F)c2)ccn1` [regorafenib], for which the IC50 in the assay on VEGFR2 [1] (read-out: Reported IC50 values (VEGFR2), published literature, ref Wilhelm SM et al., Int J Cancer. 2011) is 4 nM.
In the case of `N#CC1(c2ccc(NC(=O)c3cccnc3NCc3ccncc3)cc2)CCCC1` [rivoceranib], the inhibition at […] at KIT (rivoceranib 160 nM) was 47.3%; at KIT (rivoceranib 1600 nM) it was 92.6%; on PDGFRβ (rivoceranib 160 nM), 62.1%; against PDGFRβ (rivoceranib 1600 nM), 94.8%; at RET (rivoceranib 160 nM), 71.7%; against RET (rivoceranib 1600 nM), 97.9%. Besides, the inhibition at […] at VEGFR1/FLT1 (rivoceranib 160 nM) came to 93.3%; against VEGFR1/FLT1 (rivoceranib 1600 nM) it was 99.5%; against VEGFR2/KDR (rivoceranib 160 nM) it was 96.1%; at VEGFR2/KDR (rivoceranib 1600 nM), 101%; against VEGFR3/FLT4 (rivoceranib 160 nM) it was 92.9%; on VEGFR3/FLT4 (rivoceranib 1600 nM), 99.3%. Also, the Percent inhibition at KIT (rivoceranib 1600 nM) is 92.58%; at PDGFRβ (rivoceranib 160 nM), 62.11%; on RET (rivoceranib 160 nM) it was 71.72%; at RET (rivoceranib 1600 nM), 97.89%; on VEGFR1/FLT1 (rivoceranib 160 nM), 93.27%; at VEGFR1/FLT1 (rivoceranib 1600 nM), 99.53%. Moreover, the Percent inhibition is 96.12% at VEGFR2/KDR (rivoceranib 160 nM), 100.79% on VEGFR2/KDR (rivoceranib 1600 nM) and 99.33% at VEGFR3/FLT4 (rivoceranib 1600 nM). Further, the IC50 was 1 nM with VEGFR2 [1] (read-out: IC50 for VEGFR2 kinase inhibition in a previous study, ATP 10 µM) and 16 nM on VEGFR2 [3]. The “Overall residual kinase activity across the panel of kinases” value in the assay with panel of 270 kinases [2] (160 nM and 1600 nM rivoceranib, compared among all inhibitors profiled) is given as “the greatest residual kinase activity”. For the same molecule, the dissociation constant (Kd) on VEGFR2 [4] (KD (binding affinity, KD = kd/ka), SPR, single-cycle kinetics, 22 °C, 1:1 model, based on four replicates) is 2.08 nM and 2 nM and ~2 nM; at VEGFR2 [4] (KD, SPR, individual replicates 1a, 1b, 2a, 2b), 3.06 nM and 1.84 nM and 1 nM and 3.34 nM. Further, the kd on VEGFR2 [4] (SPR, geometric average of four replicates) was 0.000807 s⁻¹; at VEGFR2 [4] (setting [7]), 0.000775 s⁻¹ and 0.000557 s⁻¹ and 0.000445 s⁻¹ and 0.0022 s⁻¹. In addition, the ka at VEGFR2 [4] (setting [7]) was 303000 M⁻¹ s⁻¹ and 253000 M⁻¹ s⁻¹ and 445000 M⁻¹ s⁻¹ and 659000 M⁻¹ s⁻¹. Moreover, on VEGFR2 [4] (read-out: ka, SPR, geometric average of four replicates), the kon stood at 387000 M⁻¹ s⁻¹.
As for `CCN(CC)CCNC(=O)c1c(C)[nH]c(/C=C2\C(=O)Nc3ccc(F)cc32)c1C` [sunitinib], in the assay on panel of 270 kinases [5], the “Overall residual kinase activity across the panel of kinases” value is “the least residual kinase activity”. In the assay with panel of 270 kinases [2] (setting [6]), the “Number of additional kinases beyond VEGFR2 inhibited by > 50%” value amounted to 125.
In the case of `COc1cc2nccc(Oc3ccc(NC(=O)Nc4cc(C)on4)c(Cl)c3)c2cc1OC` [tivozanib], the “Number of additional kinases beyond VEGFR2 inhibited by > 50%” value with panel of 270 kinases [2] (setting [6]) is on record as “more than 70”.
